One assay deals with cMet-Fc fusion protein (Homo sapiens, UniProt P08581). Put plainly: Protein phage ELISA: peptide-displaying phage binding to soluble cMet-Fc versus TRAIL-Fc. The note with it: phage isolate; cMet-Fc vs. TRAIL-Fc. The method, boiled down:
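Plates coated with 0.5 μg/mL cMet-Fc or, as background, TRAIL-Fc, then blocked with 3% BSA in PBST. Peptide-displaying phage bound 2 h at room temperature. Detection with HRP-anti-M13 antibody.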

For another assay, the system named is SK-LMS-1 cells. Put plainly: Cellular proliferation assay (HGF-stimulated, BrdU incorporation). Type of assay: cell-based. The note with it: peptide 10 μM, HGF 50 ng/mL or 100 ng/mL, FIG. 10. As to the method:
Cellular proliferation assays were performed to identify cMet-binding peptides that antagonize HGF-stimulated proliferation. These in vitro studies utilized a leomyosarcoma cell line, SK-LMS-1, in which cells proliferate in response to HGF. SK-LMS-1 cells were seeded on 96-well plates at a density of 2000 cells/well. After a 24 hour incubation at 37 C, the cells were starved in culture media containing 0.1% BSA instead of 10% fetal bovine serum for 36 hours at 37 C. Fresh starvation media with or without a cMet-binding peptide (10 μM) was added to the respective wells and the cells were incubated for 2 hours at 37 C. […] HGF was then added at a concentration of either 50 ng/mL or 100 ng/mL and the cells were incubated for an additional 12 hours at 37 C. Proliferation was assessed by measuring the incorporation of BrdU (Calbiochem, San Diego, Calif.) as described by the manufacturer. Results are shown for SEQ ID NO:365 (FIG. 10).
(Uptake of a labelled nucleoside into DNA is a usual measure of proliferation.)

In assay [1] the target is T1, 3T3 cells that over-express human cMet (Homo sapiens, UniProt P08581).
T1 construct: expressed in transfected cells; host or cells: 3T3 cells
T1 sequence (P08581 25-1390): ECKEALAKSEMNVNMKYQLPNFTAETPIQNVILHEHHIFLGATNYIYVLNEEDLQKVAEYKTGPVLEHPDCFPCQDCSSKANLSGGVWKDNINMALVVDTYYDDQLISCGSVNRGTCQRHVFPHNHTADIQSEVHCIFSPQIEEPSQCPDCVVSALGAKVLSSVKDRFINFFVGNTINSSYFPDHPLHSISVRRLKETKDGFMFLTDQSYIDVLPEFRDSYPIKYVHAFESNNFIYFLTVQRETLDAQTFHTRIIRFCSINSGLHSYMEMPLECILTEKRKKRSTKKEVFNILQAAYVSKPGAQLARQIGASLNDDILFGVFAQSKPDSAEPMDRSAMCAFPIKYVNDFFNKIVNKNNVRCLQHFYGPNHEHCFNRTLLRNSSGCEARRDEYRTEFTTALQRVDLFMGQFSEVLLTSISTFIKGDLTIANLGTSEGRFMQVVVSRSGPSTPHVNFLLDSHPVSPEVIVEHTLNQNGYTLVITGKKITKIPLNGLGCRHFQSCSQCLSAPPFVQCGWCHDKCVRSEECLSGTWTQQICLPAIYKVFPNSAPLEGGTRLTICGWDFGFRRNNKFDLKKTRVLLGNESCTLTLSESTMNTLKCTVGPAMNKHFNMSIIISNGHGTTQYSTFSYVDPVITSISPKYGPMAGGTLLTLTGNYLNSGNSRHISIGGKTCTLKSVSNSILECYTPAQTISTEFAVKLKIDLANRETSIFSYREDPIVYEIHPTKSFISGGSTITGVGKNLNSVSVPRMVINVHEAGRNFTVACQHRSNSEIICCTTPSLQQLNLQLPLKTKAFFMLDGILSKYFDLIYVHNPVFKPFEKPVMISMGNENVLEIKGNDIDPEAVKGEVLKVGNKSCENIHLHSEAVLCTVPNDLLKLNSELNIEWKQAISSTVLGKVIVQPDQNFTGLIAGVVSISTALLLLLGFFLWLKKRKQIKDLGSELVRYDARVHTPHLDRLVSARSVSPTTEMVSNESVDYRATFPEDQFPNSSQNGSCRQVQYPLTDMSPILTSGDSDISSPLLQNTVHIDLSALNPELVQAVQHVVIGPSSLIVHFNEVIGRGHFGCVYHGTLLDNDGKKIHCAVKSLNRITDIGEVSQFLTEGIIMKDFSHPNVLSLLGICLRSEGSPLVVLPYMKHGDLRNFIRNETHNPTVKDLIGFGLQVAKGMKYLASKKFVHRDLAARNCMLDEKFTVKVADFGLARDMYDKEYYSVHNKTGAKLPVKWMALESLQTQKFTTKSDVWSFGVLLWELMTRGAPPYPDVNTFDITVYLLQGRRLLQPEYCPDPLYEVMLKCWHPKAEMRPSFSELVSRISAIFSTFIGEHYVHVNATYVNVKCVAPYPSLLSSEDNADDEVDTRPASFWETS
The experiment in a line: Whole cell ELISA of peptide-displaying phage. Format: cell-based. The note with it: phage isolate; 3T3 cells expressing human cMet vs. non-expressing 3T3 cells. The method, boiled down:
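3T3 cells over-expressing human cMet seeded 10^5/well, pelleted and fixed with 0.1% glutaraldehyde 12 min at 37 °C. Blocked peptide-displaying phage bound 1 h at room temperature; after PBST wash, bound phage detected with HRP-conjugated anti-M13 antibody.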
For orientation: In an ELISA, binding on a coated surface is turned into a signal by an enzyme label.

The target of assay [2] is T2, cMet-Fc fusion protein (or similar target) (Mus musculus, UniProt P16056).
T2 construct: Fc
T2 sequence (P16056 25-306 limits assumed): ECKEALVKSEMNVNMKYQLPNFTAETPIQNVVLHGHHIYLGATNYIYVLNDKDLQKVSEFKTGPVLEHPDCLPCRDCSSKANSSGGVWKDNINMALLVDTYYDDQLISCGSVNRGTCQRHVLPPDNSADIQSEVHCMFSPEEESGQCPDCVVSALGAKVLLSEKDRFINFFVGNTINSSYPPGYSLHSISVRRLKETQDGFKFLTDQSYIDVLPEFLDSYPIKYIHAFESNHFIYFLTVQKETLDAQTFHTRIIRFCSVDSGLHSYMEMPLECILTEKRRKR
T2 sequence (P16056 307-929 limits assumed): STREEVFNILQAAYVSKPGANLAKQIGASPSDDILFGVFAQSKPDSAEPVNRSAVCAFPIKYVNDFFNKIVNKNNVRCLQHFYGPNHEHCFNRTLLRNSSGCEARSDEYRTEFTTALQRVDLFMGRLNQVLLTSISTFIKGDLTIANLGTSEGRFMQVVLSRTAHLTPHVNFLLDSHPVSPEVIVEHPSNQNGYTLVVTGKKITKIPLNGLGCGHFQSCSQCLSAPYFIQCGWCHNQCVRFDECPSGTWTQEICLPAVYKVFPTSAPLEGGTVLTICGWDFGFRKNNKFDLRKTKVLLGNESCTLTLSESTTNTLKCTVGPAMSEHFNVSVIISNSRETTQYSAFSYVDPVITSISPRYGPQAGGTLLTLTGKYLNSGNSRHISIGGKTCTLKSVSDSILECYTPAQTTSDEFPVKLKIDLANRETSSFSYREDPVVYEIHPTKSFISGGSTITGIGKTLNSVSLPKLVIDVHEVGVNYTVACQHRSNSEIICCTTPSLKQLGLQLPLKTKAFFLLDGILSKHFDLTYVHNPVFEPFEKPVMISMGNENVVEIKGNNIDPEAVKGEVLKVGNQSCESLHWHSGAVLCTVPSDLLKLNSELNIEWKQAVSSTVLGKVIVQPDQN
Put plainly: Fluorescence anisotropy / polarization direct binding, mouse cMet. The note with it: fluorescein-labeled peptide. Also noted: key: NB = no binding. As to the method:
Fluorescence anisotropy measurements were performed in 384-well microplates in a volume of 10 μL in binding buffer (PBS, 0.01% Tween-20, pH 7.5) using a Tecan Polarion fluorescence polarization plate reader ([…]). The concentration of fluorescein-labeled peptide was held constant (20 nM) and the concentration of cMet-Fc fusion protein (or similar target) was varied. Binding mixtures were equilibrated for 10 minutes in the microplate at 30 C before measurement. The observed change in anisotropy was fit to the equation below via nonlinear regression to obtain the apparent KD. This equation (1) assumes that the synthetic peptide and cMet form a reversible complex in solution with 1:1 stoichiometry.
[formula] where robs is the observed anisotropy, rfree is the anisotropy of the free peptide, rbound is the anisotropy of the bound peptide, KD is the apparent dissociation constant, cMet is the total cMet concentration, and P is the total fluorescein-labeled peptide concentration. KD was calculated in a direct binding assay (KD,B) and therefore these values represent cMet binding to the fluorescein labeled peptide.
(Fluorescence polarisation rises when a labelled molecule tumbles more slowly, as on binding a larger partner.)

Results on two compounds are retold here after patent publication US9845340B2, “Peptides that specifically bind HGF receptor (cMet) and uses thereof” (Dyax Corp., priority 2003, dated 2017).

Chain of cMet-Fc fusion protein (P08581 25-307 limits assumed): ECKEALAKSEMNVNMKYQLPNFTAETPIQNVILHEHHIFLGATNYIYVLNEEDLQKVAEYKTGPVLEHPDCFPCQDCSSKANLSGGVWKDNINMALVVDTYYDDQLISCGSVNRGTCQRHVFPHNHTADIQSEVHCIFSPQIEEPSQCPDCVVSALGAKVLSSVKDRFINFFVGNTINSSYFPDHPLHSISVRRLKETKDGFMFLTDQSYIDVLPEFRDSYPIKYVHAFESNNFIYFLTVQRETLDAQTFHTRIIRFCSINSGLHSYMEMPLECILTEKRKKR
Chain of cMet-Fc fusion protein (P08581 with tags, fused parts or gaps limits assumed): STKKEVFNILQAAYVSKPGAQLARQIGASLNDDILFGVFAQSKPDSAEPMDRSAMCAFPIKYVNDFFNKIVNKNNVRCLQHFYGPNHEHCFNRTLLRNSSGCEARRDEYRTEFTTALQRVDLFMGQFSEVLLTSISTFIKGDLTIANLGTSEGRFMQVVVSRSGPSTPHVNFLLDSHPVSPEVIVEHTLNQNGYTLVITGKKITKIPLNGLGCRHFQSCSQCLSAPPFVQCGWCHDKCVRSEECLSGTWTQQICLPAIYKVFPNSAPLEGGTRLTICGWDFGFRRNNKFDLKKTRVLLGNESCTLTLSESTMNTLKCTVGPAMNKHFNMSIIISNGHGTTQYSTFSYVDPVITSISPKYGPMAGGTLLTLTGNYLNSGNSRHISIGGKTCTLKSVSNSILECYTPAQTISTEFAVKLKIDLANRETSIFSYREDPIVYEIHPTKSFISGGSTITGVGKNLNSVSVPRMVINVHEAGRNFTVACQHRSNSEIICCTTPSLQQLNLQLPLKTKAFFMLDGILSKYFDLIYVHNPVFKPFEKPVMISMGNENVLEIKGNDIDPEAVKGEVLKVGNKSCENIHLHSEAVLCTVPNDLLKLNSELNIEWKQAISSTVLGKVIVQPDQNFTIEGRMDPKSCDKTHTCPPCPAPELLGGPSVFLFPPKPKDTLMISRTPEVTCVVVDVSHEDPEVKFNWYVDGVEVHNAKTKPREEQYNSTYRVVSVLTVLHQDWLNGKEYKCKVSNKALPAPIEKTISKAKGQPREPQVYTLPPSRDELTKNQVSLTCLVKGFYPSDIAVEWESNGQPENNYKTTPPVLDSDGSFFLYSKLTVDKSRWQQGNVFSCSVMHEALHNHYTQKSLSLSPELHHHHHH

In the case of “GSWRFCGGEYSFQVCQDVAP (Synthetically generated cMet-binding peptide sequence) [SEQ ID NO: 365]”, the “Protein ELISA” value with cMet-Fc fusion protein turned out to be 26.3 fold over background. Also, in the assay on SK-LMS-1 cells, the “growth inhibitory properties (HGF-stimulated proliferation)” value is recorded as “growth inhibitory properties”. Further, the “WC ELISA” value in assay [1] is 1.33 fold over background.

`CC(=O)NCC(=O)N[C@@H](CC(=O)O)C(=O)N[C@@H](Cc1ccc(O)cc1)C(=O)N[C@@H](CO)C(=O)N[C@@H](CCC(=O)O)C(=O)N[C@H]1CSSC[C@@H](C(=O)N[C@@H](Cc2ccc(O)cc2)C(=O)N[C@@H](CC(=O)O)C(=O)N[C@@H](CCCNC(=N)N)C(=O)N[C@@H](CC(=O)O)C(=O)N2CCC[C@H]2C(=O)NCC(=O)NCC(=O)NCC(=O)N[C@@H](CCCCNC(=O)c2ccc3c(c2)C(=O)OC32c3ccc(O)cc3Oc3cc(O)ccc32)C(N)=O)NC(=O)[C@H](CCCCN)NC(=O)[C@H](C(C)C)NC(=O)[C@H](CCC(=O)O)NC(=O)[C@H](Cc2ccccc2)NC(=O)[C@H](CO)NC(=O)[C@H](CC(=O)O)NC(=O)[C@@H]2CCCN2C(=O)[C@H](CCC(=O)O)NC(=O)[C@H](Cc2ccccc2)NC(=O)[C@H](Cc2ccccc2)NC1=O` [SEQ ID NO: 399]: on cMet-Fc fusion protein, the “Protein ELISA” value turned out to be 11.3 fold over background. The “Kd (mouse)” value in assay [2] is listed as “NB”. Moreover, the “WC ELISA” value in assay [1] was determined as 1.30 fold over background.
